Measured values reported in paper PMC4621027, “Hydroxyethylamine Based Phthalimides as New Class of Plasmepsin Hits: Design, Synthesis and Antimalarial Evaluation” (PLoS ONE, 2015).
Like-named read-outs stand apart in the source and are kept apart here.

Tests used:
[1] = tested on: P. falciparum 3D7; assay: SYBR green I-based fluorescence parasite growth assay, CQ sensitive strain; type: cell-based, Plasmodium falciparum; details: read-out: IC50 values ± SE, growth of P. falciparum (3D7)
Method: (§1) For compound screening, SYBR green I-based fluorescence assay was setup as described in literature. Sorbitol synchronized parasites were incubated under normal culture conditions at 2% hematocrit and 1% parasitemia in the absence or presence of increasing concentrations of the compounds. Chloroquine (CQ) was used as positive control, while 0.4% DMSO was used as the negative control.
(§2) We have studied the antimalarial effect of all the listed molecules in […] culture conditions in order to identify a putative lead structure for pharmacological applications.

[2] = tested on: CQ resistant strain (7GB) of P. falciparum; assay: Antiplasmodial activity against CQ resistant strain; type: cell-based; details: Plasmodium falciparum, 48 h, read-out: IC50 values ± SE, CQ resistant strain (7GB)
Method: as §1, §2

[3] = MTT-colorimetric cytotoxicity assay; type: cell-based; details: human, MCF-7 cells, read-out: IC50, cytotoxicity on MCF7 cell line
Method: (§3) Phthalimides were serially diluted in DMSO in a final concentration of 100, 25 and 6.25 μg mL^-1 and evaluated for their % cytotoxicity by using MTT-colorimetric assay on MCF-7 cell line. Cell lines were maintained in RPMI-1640 (Hi-Media, Mumbai) medium supplemented with heat inactivated FCS (10% v/v) and 100 U/mL of streptomycin and were cultured in a humidified 5% CO2 atmosphere at 37°C. 100 μL (~2×10^5) of cells were seeded into wells (per well) on a 96-well plate (Nunc, Maxi Sorp) and incubated for 16 h for adherence. After 16 h, media was aspirated from the wells and the cells were washed with RPMI-1640 without FCS. 75 μL of each compound and control was added to separate wells containing cell lines and incubated at 37°C in humidified 5% CO2 atmosphere for 4 h. After 4 h, media containing the compounds was replaced with 200 μL of normal RPMI-1640 and cells were further incubated for 48 h under same conditions. After 48 h media was replaced by 200 μL of MTT (3-(4, 5-dimethylthiazol-2-yl)-2, 5-diphenyltetrazolium bromide, 0.5 mg/mL of RPMI-1640) and further incubated for 2 h. The formazan crystals were formed and suspended in 100 μL iso-propanol containing 0.06 M HCl and 0.5% SDS. Aliquots were drawn from each well and colour intensity was measured spectrophotometrically in an ELISA plate reader (Biotek, ELx800) at 540 nm. Untreated cells were taken as control with 100% viability and cells without addition of MTT were used as blank. The relative cell viability (%) compared to control cells was calculated by [abs] sample/ [abs] control × 100.

[4] = tested on: human erythrocytes; assay: In vitro hemolytic activity; type: cell-based; details: 3.125 to 100 μg/mL, 37°C, 1 h
Method: In vitro hemolytic activity of all synthesized compounds was performed as per reported protocol with slight modifications. In brief, human erythrocytes were collected from Rotary Blood Bank (New Delhi, India) and suspended in phosphate buffer saline (PBS). The suspension (2% hemotocrit) was incubated with different concentrations (3.125 to 100 μg/mL) of the entire compound series at 37°C for 1 h. After 1 h, erythrocytes were pelleted at 3000 g for 10 min (Remi, R-8C/BL) at 4°C. The supernatant was collected and OD450 was determined spectrophotometrically (Biotek, ELx800 UV spectrophotometer) using PBS as a negative control and Triton X-100 for completely lysing the cells. The percent hemolysis was calculated using the following formula: Percent hemolysis = […]. The percent hemolysis was plotted against concentration of compounds for determining the dose cytotoxic to erythrocytes.

[5] = tested on: MCF-7 cell line; assay: MTT-colorimetric cytotoxicity assay; type: cell-based; details: 100, 25 and 6.25 μg mL^-1
Method: as §3

[6] = molecular target: T1, plasmepsin 2 (Plasmodium falciparum, UniProt P46925); assay: Inhibition of plasmepsin 2, chromogenic substrate cleavage assay; type: biochemical; details: pH 4.5; fit to competitive inhibition scheme
T1 construct: preincubated at the assay pH for 3 minutes to allow conversion from the proenzyme to the mature enzyme form; made in house
T1 sequence (P46925 125-453): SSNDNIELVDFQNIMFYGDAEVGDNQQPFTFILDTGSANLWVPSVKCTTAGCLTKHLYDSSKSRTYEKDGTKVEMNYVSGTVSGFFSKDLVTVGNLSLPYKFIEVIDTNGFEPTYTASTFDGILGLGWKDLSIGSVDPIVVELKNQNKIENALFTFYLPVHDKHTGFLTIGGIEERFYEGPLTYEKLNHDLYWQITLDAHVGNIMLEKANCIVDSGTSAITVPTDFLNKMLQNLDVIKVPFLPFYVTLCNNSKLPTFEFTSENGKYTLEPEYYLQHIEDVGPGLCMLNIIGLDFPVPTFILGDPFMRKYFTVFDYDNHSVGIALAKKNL
Method: (§4) Synthetic compounds were dissolved in DMSO to make stock solutions at concentrations around 100 μM. Dilutions from these stocks were made to obtain solutions to use for studying inhibition of the plasmepsins 2 and 4 from P. falciparum. Assays of enzymatic activity were typically done using 50 micromolar substrate and 50 nanomolar enzyme at pH 4.5. The protein samples were preincubated at the assay pH for 3 minutes to allow conversion from the proenzyme to the mature enzyme form, then immediately mixed with inhibitor solutions and incubated for a further 5 minutes to permit the enzyme-inhibitor complex to form. Following this, the samples were mixed with samples of the substrate to yield a 50 μM substrate concentration in the final assay solution and immediately placed in a recording spectrophotometer to follow the reaction. The cleavage of the chromogenic substrate yields a shift in absorbance that can be quantified by the decrease in absorbance at 300 nm. Compounds were mixed with the enzymes at concentrations ranging from 10 to 50 μM range and the effect on enzyme activity studied in duplicate assays.
(§5) A second inhibitor concentration was chosen that would yield approximately 30–35% inhibition and a third inhibitor concentration was chosen to yield approximately 65–70% inhibition. The three resulting curves of initial velocity versus substrate concentration were fit simultaneously to the competitive inhibition scheme; this yields values of Vmax, Km, and Ki.
(§6) Plasmepsins, a family of aspartic proteases of malaria parasite, are known to participate in a wide variety of cellular processes essential for parasite survival. […] Similarly, plasmepsin 4 from P. falciparum can be prepared and activated. Catalytic activity of the plasmepsins can be studied by following the change in absorbance at 300 nm as cleavage occur between a Phe and a nitroPhe in the synthetic substrate, Lys-Pro-Ile-Glu-Phe-NO2Phe-Arg-Leu. The compounds listed in Tables 1, 2 and 3 were assayed for inhibition by preincubating with differnt concentrations of the compound with equal aliquots of either plasmepsin 2 or 4 followed by mixing with the assay substrate.

[7] = molecular target: T2, plasmepsin 4 (Plasmodium falciparum, UniProt Q8IM16); assay: Inhibition of plasmepsin 4, chromogenic substrate cleavage assay; type: biochemical; details: pH 4.5; fit to competitive inhibition scheme
T2 construct: preincubated at the assay pH for 3 minutes to allow conversion from the proenzyme to the mature enzyme form; made in house
T2 sequence (Q8IM16 122-449): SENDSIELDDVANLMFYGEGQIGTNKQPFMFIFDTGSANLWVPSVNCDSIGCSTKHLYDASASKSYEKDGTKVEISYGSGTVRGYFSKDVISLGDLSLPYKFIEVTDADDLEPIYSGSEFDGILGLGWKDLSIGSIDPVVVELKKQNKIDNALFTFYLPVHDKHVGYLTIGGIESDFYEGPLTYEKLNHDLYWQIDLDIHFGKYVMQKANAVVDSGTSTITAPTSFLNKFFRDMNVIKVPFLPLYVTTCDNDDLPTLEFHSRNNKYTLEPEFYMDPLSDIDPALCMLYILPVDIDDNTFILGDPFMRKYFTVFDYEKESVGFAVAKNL
Method: as §4, §5, §6

[8] = Plasmodium falciparum, CQ sensitive strain 3D7, 48 h incubation

| SMILES | IC50 [1, 8] [µM] | melting point [°C] | also measured |
| --- | --- | --- | --- |
| C[C@@H]1CC[C@H]2[C@@H](C)C(=O)O[C@@H]3O[C@@]4(C)CC[C@@H]1[C@]32OO4 [ART, reference compound] |  |  | IC50 ([1]; CQ sensitive strain 3D7, 48 h incubation): 0.021 µM |
| CCN(CC)CCCC(C)Nc1ccnc2cc(Cl)ccc12 (stereo not drawn) [CQ, Chloroquine, reference compound] |  |  | IC50 ([1]; Plasmodium falciparum, 3D7, 48 h): 0.059 µM; IC50 [2]: 1.32 µM |
| CN1CCN(C[C@H](O)[C@@H](Cc2ccccc2)NC(=O)OC(C)(C)C)CC1 [Compound 5a] | 5.88 ± 0.23 |  | IC50 at 4 h [3]: > 8 µM; hemolysis of human erythrocytes (in words) [4]: least hemotoxic |
| CCN1CCN(C[C@H](O)[C@@H](Cc2ccccc2)NC(=O)OC(C)(C)C)CC1 [Compound 5b] | 5.4 ± 0.06 | 89 to 91 | hemolysis of human erythrocytes (in words) [4]: highest hemotoxicity |
| CC(C)(C)OC(=O)N[C@H](Cc1ccccc1)[C@@H](O)CN1CCN(Cc2ccc(F)cc2)CC1 [Compound 5c] | 2.56 ± 0.06 | 108 to 110 | IC50 at 4 h [3]: > 8 µM |
| CC(C)(C)OC(=O)N[C@H](Cc1ccccc1)[C@@H](O)CN1CCN(Cc2ccc(Br)cc2)CC1 [Compound 5d] | 4.9 ± 0.01 | 111 to 114 |  |
| CC(C)(C)OC(=O)N[C@H](Cc1ccccc1)[C@@H](O)CN1CCN(C[C@H](O)[C@@H](Cc2ccccc2)NC(=O)OC(C)(C)C)CC1 [Compound 5f] | 3.11 ± 0.11 |  | cytotoxic effect on MCF7 cell line (in words) [5]: maximal toxicity |
| CC(C)C[C@@H](C(=O)N[C@H](Cc1ccccc1)[C@@H](O)CN1CCN(C)CC1)N1C(=O)c2ccccc2C1=O [Compound 6a] | 4.61 ± 0.06 | 141 to 143 |  |
| CN1CCN(C[C@H](O)[C@@H](Cc2ccccc2)NC(=O)[C@H](Cc2ccccc2)N2C(=O)c3ccccc3C2=O)CC1 [Compound 6b] | 3.41 ± 0.03 | 101 to 103 |  |
| CC(C)[C@@H](C(=O)N[C@H](Cc1ccccc1)[C@@H](O)CN1CCN(C)CC1)N1C(=O)c2ccccc2C1=O [Compound 6c] | 4.58 ± 0.04 | 91 to 93 |  |
| CC[C@@H](C)[C@@H](C(=O)N[C@H](Cc1ccccc1)[C@@H](O)CN1CCN(C)CC1)N1C(=O)c2ccccc2C1=O [Compound 6d] | 6.33 ± 0.13 | 104 to 106 | hemolysis of human erythrocytes (in words) [4]: lower hemolysis |
| CCN1CCN(C[C@H](O)[C@@H](Cc2ccccc2)NC(=O)[C@H](CC(C)C)N2C(=O)c3ccccc3C2=O)CC1 [Compound 6e] | 2.13 ± 0.02 | 117 to 119 |  |
| CCN1CCN(C[C@H](O)[C@@H](Cc2ccccc2)NC(=O)[C@H](Cc2ccccc2)N2C(=O)c3ccccc3C2=O)CC1 [Compound 6f] | 2.96 ± 0.43 | 108 to 111 |  |
| CCN1CCN(C[C@H](O)[C@@H](Cc2ccccc2)NC(=O)[C@H](C(C)C)N2C(=O)c3ccccc3C2=O)CC1 [Compound 6g] | 3.8 ± 0.03 | 108 to 111 |  |
| CC(C)C[C@@H](C(=O)N[C@H](Cc1ccccc1)[C@@H](O)CN1CCN(Cc2ccc(F)cc2)CC1)N1C(=O)c2ccccc2C1=O [Compound 6i] | 5.27 ± 0.06 | 134 to 136 |  |
| CC(C)[C@@H](C(=O)N[C@H](Cc1ccccc1)[C@@H](O)CN1CCN(Cc2ccc(F)cc2)CC1)N1C(=O)c2ccccc2C1=O [Compound 6k] | 4.59 ± 0.07 | 137 to 139 | IC50 at 4 h [3]: > 8 µM |
| CC(C)C[C@@H](C(=O)N[C@H](Cc1ccccc1)[C@@H](O)CN1CCN(Cc2ccc(Br)cc2)CC1)N1C(=O)c2ccccc2C1=O [Compound 6m] | 6.96 ± 0.1 | 143 to 145 | IC50 at 4 h [3]: > 8 µM |
| O=C(N[C@H](Cc1ccccc1)[C@@H](O)CN1CCN(Cc2ccc(Br)cc2)CC1)[C@H](Cc1ccccc1)N1C(=O)c2ccccc2C1=O [Compound 6n] | 3.14 ± 0.02 | 131 to 133 |  |
| O=C(N[C@H](Cc1ccccc1)[C@@H](O)CN1CCC(N2CCCCC2)CC1)[C@H](Cc1ccccc1)N1C(=O)c2ccccc2C1=O [Compound 6q] | 8.54 ± 0.04 | 134 to 136 | IC50 at 4 h [3]: > 8 µM |
| CC(C)C[C@@H](C(=O)N[C@H](Cc1ccccc1)[C@@H](O)CN1CCN(C[C@H](O)[C@@H](Cc2ccccc2)NC(=O)[C@H](CC(C)C)N2C(=O)c3ccccc3C2=O)CC1)N1C(=O)c2ccccc2C1=O [Compound 6r] | 5.12 ± 0.43 | 141 to 143 | Ki [6]: 1.1 ± 0.1 µM; Ki [7]: > 50 µM; hemolysis of human erythrocytes (in words) [4]: least hemotoxic |
| CC(C)[C@@H](C(=O)N[C@H](Cc1ccccc1)[C@@H](O)CN1CCN(C[C@H](O)[C@@H](Cc2ccccc2)NC(=O)[C@H](C(C)C)N2C(=O)c3ccccc3C2=O)CC1)N1C(=O)c2ccccc2C1=O [Compound 6t] | 7.28 ± 0.43 | 123 to 125 | Ki [6]: > 20 µM; Ki [7]: 3.3 ± 0.3 µM |
| CCC(C)[C@@H](C(=O)N[C@H](Cc1ccccc1)[C@@H](O)CN1CCN(C[C@H](O)[C@@H](Cc2ccccc2)NC(=O)[C@H](C(C)CC)N2C(=O)c3ccccc3C2=O)CC1)N1C(=O)c2ccccc2C1=O (stereo partly drawn) [Compound 6u] | 3.24 ± 0.06 | 131 to 134 | Ki [6]: 0.99 ± 0.1 µM; Ki [7]: > 50 µM |
